Literature values, collected in patent US20070184084A1, “IMPLANTABLE ELASTOMERIC CAPROLACTONE DEPOT COMPOSITIONS AND USES THEREOF” (priority 2003, published 2007).

Settings: reported value

solubility in water: 7.17 grams in 100 ml of water
Compound: CC(=O)OCC(COC(C)=O)OC(C)=O [triacetin]
